Holding throughout (type): functional, cell-based
One test deals with HL-60. The experiment in a line: Cytotoxicity against human HL-60 cells assessed as reduction in cell viability after 48 hrs by MTS assay. The following applies: HL-60, 48 h. In general terms: Tetrazolium dyes change colour on reduction, which living cells bring about.
The next test concerns MCF7. The test is described as follows: Cytotoxicity against human MCF7 cells assessed as reduction in cell viability after 48 hrs by MTS assay. The following applies: MCF7, 48 h.
For another test, the system named is SMMC-7721. The test is described as follows: Cytotoxicity against human SMMC-7721 cells assessed as reduction in cell viability after 48 hrs by MTS assay. The following applies: SMMC-7721, 48 h.
Another test has as its system RAW264.7. The experiment in a line: Inhibition of LPS-induced NO production in mouse RAW264.7 cells at 50 uM incubated for 18 hrs by Griess reagent based assay.
The next test relates to A549. The test is described as follows: Cytotoxicity against human A549 cells assessed as reduction in cell viability after 48 hrs by MTS assay. The following applies: A549, 48 h.
The test system of the next test is SW480. The experiment in a line: Cytotoxicity against human SW480 cells assessed as reduction in cell viability after 48 hrs by MTS assay. The following applies: SW480, 48 h.

For 2 compounds, IC50 and inhibition results are on record in ChEMBL document CHEMBL4673283, “Penisarins A and B, Sesquiterpene Coumarins Isolated from an Endophytic Penicillium sp” (J Nat Prod, 2020).

Active and inactive are the calls of the source. The rule behind the calls is not given here. A value given as a limit tells only on which side of the number the result lay.

A word on the IC50: it is the concentration needed to halve the response being measured. Regarding `COc1cc(C)c2c3c(c(=O)oc2c1)C[C@@H]([C@@]1(C)CC[C@H]2C(C)(C)[C@@H](O)CC[C@@]21C)O3`, the IC50 in the test with HL-60 turned out to be 3.6 µM; with MCF7, 13 µM; in the test on SMMC-7721, 3.7 µM; in the test on A549, 15.3 µM; in the test on SW480, 27.1 µM. Also, the inhibition result in the test on RAW264.7 is “inactive”.
With `COc1cc(C)c2c3c(c(=O)oc2c1)C[C@@H]([C@@]1(C)CC[C@H]2C(C)(C)C(=O)CC[C@@]21C)O3`, the IC50 in the test on HL-60, in the test on MCF7, in the test on SMMC-7721, in the test on A549 and in the test on SW480 was greater than 40 µM in each case. The inhibition entry with RAW264.7 is “inactive”.
